Ends that are not written are not given here.
Conditions: rat, in vivo
Source text: The stained samples were examined under a fluorescence microscope (Eclipse TE2000U) at 200× magnification and photographed from 4 randomly selected areas. Then, the images with specific expressions were processed using the imageJ program and then quantified.

substance P retained in the knee joints: retained in the knee joints of rats
Sequence: KLDLKLDLKLDLRPKPQQFFGLM [KLD12-SP]

— patent publication US10434135B2, “Pharmaceutical composition for preventing or treating arthritis” (Samsung Life Public Welfare Foundation, priority 2015, dated 2019)
